According to ChEMBL document CHEMBL4270481, “ALK5 kinase inhibitory activity and synthesis of 2,3,4-substituted 5,5-dimethyl-5,6-dihydro-4H-pyrrolo[1,2-b]pyrazoles” (Eur J Med Chem, 2017):

What was measured:
[1] = species: Homo sapiens; assay: Inhibition of PKA (unknown origin) assessed as residual enzyme activity at 1 uM relative to untreated control
[2] = target: T1, TGF-beta receptor type-1 (Homo sapiens, UniProt P36897); assay: Inhibition of human ALK5 expressed in Sf9 insect cells using casein as substrate in presence of [gamma-33P]ATP; assay type: cell-based
T1 sequence (P36897 whole entry): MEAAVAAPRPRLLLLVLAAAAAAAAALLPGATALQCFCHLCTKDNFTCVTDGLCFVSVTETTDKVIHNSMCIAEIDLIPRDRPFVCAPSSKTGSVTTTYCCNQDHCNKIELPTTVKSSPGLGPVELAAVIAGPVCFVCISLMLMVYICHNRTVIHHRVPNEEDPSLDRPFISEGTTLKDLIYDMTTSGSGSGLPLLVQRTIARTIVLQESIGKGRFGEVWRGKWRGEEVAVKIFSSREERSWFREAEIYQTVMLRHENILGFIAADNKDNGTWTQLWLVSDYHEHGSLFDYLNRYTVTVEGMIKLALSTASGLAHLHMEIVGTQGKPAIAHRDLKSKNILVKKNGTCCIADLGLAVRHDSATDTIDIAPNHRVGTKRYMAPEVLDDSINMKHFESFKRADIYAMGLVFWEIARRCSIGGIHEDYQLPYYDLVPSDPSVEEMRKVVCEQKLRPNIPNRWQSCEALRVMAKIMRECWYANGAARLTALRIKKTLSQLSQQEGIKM

[3] = system: BJ; assay: Cytotoxicity against human BJ cells assessed as decrease in cell proliferation up to 100 uM after 72 hrs by calcein AM staining-based assay

## Cc1cccc(-c2nn3c(c2-c2ccc(O)cc2)C(C)C(C)(C)C3)n1 (stereo not drawn)
[1]
  Activity: 60 to 80%
[2]
  IC50: 80 nM
[3]
  Activity: Non-Toxic
